# Experimental data taken from patent publication US12617814B2, “Neuroactive steroids and methods of use thereof” (Sage Therapeutics, LLC, priority 2013, dated 2026).
# Target: NMDA receptor (GRIN1/GRIN2A) (Homo sapiens, UniProt Q05586+Q12879)
# Test: NMDA potentiation, two electrode voltage clamp (TEVC) of Xenopus oocytes expressing NMDA receptor
# Assay type: cell-based
# Conditions: 10 μM compound, 3 μM Glutamate and Glycine
# Protocol: NMDA potentiation was assessed using either whole cell patch clamp of mammalian cells which expressed NMDA receptors, or using two-electrode voltage clamp (TEVC) of Xenopus Laevis oocytes expressing NMDA receptors.
# The Two Electrode Voltage Clamp (TEVC) technique was used to investigate the effects of compounds (10 μM) on the NMDA receptor (GRIN1/GRIN2A) expressed in Xenopus oocytes. Glutamate/Glycine peak and steady-state currents were recorded from oocytes that expressed the NMDA receptor and the modulatory effects of the test items on these currents were investigated.
# Ovaries were harvested from Xenopus Laevis females that had been deeply anesthetized by cooling at 4° C. and immersion in Tricaine methanesulfonate (MS-222 at a concentration of 150 mg/L) in sodium bicarbonate (300 mg/L). Once anesthetized the animal was decapitated and pithed following the rules of animal rights from the Geneva canton. A small piece of ovary was isolated for immediate preparation while the remaining part was placed at 4° C. in a sterile Barth solution containing in mM NaCl 88, KCl 1, NaHCO3 2.4, HEPES 10, MgSO4·7H2O 0.82, Ca(NO3)2·4H2O 0.33, CaCl2·6H2O 0.41, at pH 7.4, and supplemented with 20 μg/ml of kanamycin, 100 unit/ml penicillin and 100 μg/ml streptomycin. All recordings were performed at 18° C. and cells were super-fused with medium containing in mM: NaCl 82.5, KCl 2.5, HEPES 5, CaCl2·2H2O, ·6H2O 1, pH 7.4.
# Oocytes were injected with either cDNAs encoding for the human GRIN1 and GRIN2A subunits, using a proprietary automated injection device (Hogg et al., J. Neurosci. Methods, (2008) 169: 65-75) and receptor expression was assessed using electrophysiology at least two days later. The ratio of cDNA injection for GRIN1 and GRIN2A was 1:1. Electrophysiological recordings were made using an automated process equipped with standard TEVC and data were captured and analyzed using a proprietary data acquisition and analysis software running under Matlab (Mathworks Inc.). The membrane potential of the oocytes was maintained at −80 mV throughout the experiments. To explore the effects of proprietary compounds, currents were evoked by applying 3 μM Glutamate and […] Glycine for 10 s. Oocytes were then washed for 90 s before being exposed to the test article at a concentration of 10 μM for 120 s. Following this, 3 μM Glutamate and […] Glycine were immediately reapplied for 10 s. Potentiation of both the peak current and the steady state current was assessed. For statistical analysis values were computed either with Excel (Microsoft) or Matlab (Mathworks Inc.). To obtain mean measurements with standard deviations, all experiments were carried out using at least three cells.
# Glutamate was prepared as a concentrated stock solution ([…]) in water and then diluted in the recording medium to obtain the desired test concentration. Glycine was prepared as a stock solution at 1 M in water. Compounds were prepared as stock solution ([…]) in DMSO and then diluted in the recording medium to obtain the desired test concentration.
# Chain of NMDA receptor (GRIN1/GRIN2A) (Q12879 23-1464, other chains not shown): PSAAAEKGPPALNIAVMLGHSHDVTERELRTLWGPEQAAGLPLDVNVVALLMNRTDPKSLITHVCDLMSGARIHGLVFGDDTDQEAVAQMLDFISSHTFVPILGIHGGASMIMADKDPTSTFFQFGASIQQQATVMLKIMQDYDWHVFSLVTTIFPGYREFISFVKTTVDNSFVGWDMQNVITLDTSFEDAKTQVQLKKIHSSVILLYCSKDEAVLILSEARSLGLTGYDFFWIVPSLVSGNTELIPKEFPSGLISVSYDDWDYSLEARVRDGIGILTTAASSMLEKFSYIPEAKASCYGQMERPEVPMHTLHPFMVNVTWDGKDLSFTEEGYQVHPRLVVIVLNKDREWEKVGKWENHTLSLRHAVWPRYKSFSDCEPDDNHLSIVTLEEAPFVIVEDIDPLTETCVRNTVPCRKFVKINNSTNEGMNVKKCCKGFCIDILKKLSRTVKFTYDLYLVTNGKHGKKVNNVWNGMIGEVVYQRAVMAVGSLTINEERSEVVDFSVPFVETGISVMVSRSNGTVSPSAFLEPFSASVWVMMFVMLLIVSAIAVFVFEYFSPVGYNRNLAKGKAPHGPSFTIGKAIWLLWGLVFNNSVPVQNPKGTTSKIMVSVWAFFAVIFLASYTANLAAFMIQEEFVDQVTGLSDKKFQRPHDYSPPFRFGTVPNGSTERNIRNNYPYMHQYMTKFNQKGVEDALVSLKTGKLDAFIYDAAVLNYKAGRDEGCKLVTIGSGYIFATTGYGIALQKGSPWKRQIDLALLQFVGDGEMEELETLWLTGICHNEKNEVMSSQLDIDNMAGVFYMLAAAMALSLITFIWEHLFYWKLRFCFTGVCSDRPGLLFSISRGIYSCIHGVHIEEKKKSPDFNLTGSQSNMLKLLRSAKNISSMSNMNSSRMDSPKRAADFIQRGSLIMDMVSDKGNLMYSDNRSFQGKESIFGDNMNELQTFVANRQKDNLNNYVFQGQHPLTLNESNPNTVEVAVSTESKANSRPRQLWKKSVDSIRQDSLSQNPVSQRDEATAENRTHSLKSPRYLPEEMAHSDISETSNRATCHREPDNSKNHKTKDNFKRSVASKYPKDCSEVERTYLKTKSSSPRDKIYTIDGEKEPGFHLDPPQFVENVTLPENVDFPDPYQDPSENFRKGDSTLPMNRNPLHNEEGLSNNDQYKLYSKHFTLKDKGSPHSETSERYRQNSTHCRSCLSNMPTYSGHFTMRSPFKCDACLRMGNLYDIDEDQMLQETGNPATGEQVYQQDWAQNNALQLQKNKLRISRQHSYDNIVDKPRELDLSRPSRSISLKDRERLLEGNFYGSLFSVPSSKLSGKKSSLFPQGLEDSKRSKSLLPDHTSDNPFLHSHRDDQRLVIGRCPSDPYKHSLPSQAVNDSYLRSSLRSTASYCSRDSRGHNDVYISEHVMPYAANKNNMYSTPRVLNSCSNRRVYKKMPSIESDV
row,SMILES,activation at 10 µM [%]
1,C[C@H](CC[C@@](C)(O)CCO)[C@H]1CC[C@H]2[C@@H]3CC=C4C[C@@](C)(O)CC[C@]4(C)[C@H]3CC[C@]12C [Compound 10-20],10 to 50
2,C[C@H](CC(F)(F)[C@H](C)O)[C@H]1CC[C@H]2[C@@H]3CC=C4C[C@@](C)(O)CC[C@]4(C)[C@H]3CC[C@]12C [Compound 11-15],10 to 50
3,CCC[C@@](C)(O)CC[C@@H](C)[C@H]1CC[C@H]2[C@@H]3CC=C4C[C@@](C)(O)CC[C@]4(C)[C@H]3CC[C@]12C [Compound 5-6],10 to 50
4,C[C@H](CC[C@@](C)(O)CCCO)[C@H]1CC[C@H]2[C@@H]3CC=C4C[C@@](C)(O)CC[C@]4(C)[C@H]3CC[C@]12C [Compound 6-9],10 to 50
5,C[C@H](CC[C@](C)(O)C1CC1)[C@H]1CC[C@H]2[C@@H]3CC=C4C[C@@](C)(O)CC[C@]4(C)[C@H]3CC[C@]12C [Compound 9-4],50 to 100
6,CCCC[C@](C)(O)CC[C@@H](C)[C@H]1CC[C@H]2[C@@H]3CC[C@H]4C[C@@](C)(O)CC[C@]4(C)[C@H]3CC[C@]12C [Compound 7-6],> 100
7,CC[C@]1(O)CC[C@@]2(C)C(=CC[C@H]3[C@@H]4CC[C@H]([C@H](C)CCC(O)C(F)(F)F)[C@@]4(C)CC[C@@H]32)C1 (some centres unmarked) [Compound 2-4],> 100
8,CC(C)[C@@](C)(O)CC[C@@H](C)[C@H]1CC[C@H]2[C@@H]3CC=C4C[C@@](C)(O)CC[C@]4(C)[C@H]3CC[C@]12C [Compound 8-7],50 to 100
9,CC[C@](C)(O)CC[C@@H](C)[C@H]1CC[C@H]2[C@@H]3CC[C@H]4C[C@@](C)(O)CC[C@]4(C)[C@H]3CC[C@]12C [Compound 4-10],10 to 50
10,C[C@H](CCC(C)(O)C(F)(F)F)[C@H]1CC[C@H]2[C@@H]3CC=C4C[C@@](C)(O)CC[C@]4(C)[C@H]3CC[C@]12C (some centres unmarked) [Compound 3-2],> 100
11,C=CC[C@@](C)(O)CC[C@@H](C)[C@H]1CC[C@H]2[C@@H]3CC=C4C[C@@](C)(O)CC[C@]4(C)[C@H]3CC[C@]12C [Compound 6-8],10 to 50
12,COCC[C@](C)(O)CC[C@@H](C)[C@H]1CC[C@H]2[C@@H]3CC[C@H]4C[C@@](C)(O)CC[C@]4(C)[C@H]3CC[C@]12C [Compound 10-17],> 100
13,C[C@H](CC[C@@](C)(O)C(F)(F)F)[C@H]1CC[C@H]2[C@@H]3CC[C@H]4C[C@@](C)(O)CC[C@]4(C)[C@H]3CC[C@]12C [Compound 3-7],10 to 50
14,C[C@H](CCC(C)(O)C1CC1)[C@H]1CC[C@H]2[C@@H]3CC[C@H]4C[C@@](C)(O)CC[C@]4(C)[C@H]3CC[C@]12C (some centres unmarked) [Compound 9-6],50 to 100
15,C=C[C@](C)(O)CC[C@@H](C)[C@H]1CC[C@H]2[C@@H]3CC[C@H]4C[C@@](C)(O)CC[C@]4(C)[C@H]3CC[C@]12C [Compound 10-10],10 to 50
16,CC(C)[C@](C)(O)CC[C@@H](C)[C@H]1CC[C@H]2[C@@H]3CC=C4C[C@@](C)(O)CC[C@]4(C)[C@H]3CC[C@]12C [Compound 8-8],> 100
17,C[C@H](CC[C@](C)(O)C(F)(F)F)[C@H]1CC[C@H]2[C@@H]3CC[C@H]4C[C@@](C)(O)CC[C@]4(C)[C@H]3CC[C@]12C [Compound 3-8],50 to 100
18,C[C@H](CC[C@](C)(O)CCO)[C@H]1CC[C@H]2[C@@H]3CC[C@H]4C[C@@](C)(O)CC[C@]4(C)[C@H]3CC[C@]12C [Compound 10-18],50 to 100
19,C=CCC(C)(O)CC[C@@H](C)[C@H]1CC[C@H]2[C@@H]3CC[C@H]4C[C@@](C)(O)CC[C@]4(C)[C@H]3CC[C@]12C (some centres unmarked) [Compound 6-6],50 to 100

row,SMILES,activation at 10 µM [%]
1,CCC[C@](C)(O)CC[C@@H](C)[C@H]1CC[C@H]2[C@@H]3CC=C4C[C@@](C)(O)CC[C@]4(C)[C@H]3CC[C@]12C [Compound 5-5],10 to 50
2,CC[C@]1(O)CC[C@@]2(C)C(=CC[C@H]3[C@@H]4CC[C@H]([C@H](C)CC[C@@H](O)C(F)(F)F)[C@@]4(C)CC[C@@H]32)C1 [Compound 2-7],> 100
3,C#C[C@](C)(O)CC[C@@H](C)[C@H]1CC[C@H]2[C@@H]3CC=C4C[C@@](C)(O)CC[C@]4(C)[C@H]3CC[C@]12C [Compound 10-3],10 to 50
4,CCCC[C@@](C)(O)CC[C@@H](C)[C@H]1CC[C@H]2[C@@H]3CC=C4C[C@@](C)(O)CC[C@]4(C)[C@H]3CC[C@]12C [Compound 7-5],10 to 50
5,CCC[C@](C)(O)CC[C@@H](C)[C@H]1CC[C@H]2[C@@H]3CC[C@H]4C[C@@](C)(O)CC[C@]4(C)[C@H]3CC[C@]12C [Compound 5-7],50 to 100
6,C#C[C@@](C)(O)CC[C@@H](C)[C@H]1CC[C@H]2[C@@H]3CC=C4C[C@@](C)(O)CC[C@]4(C)[C@H]3CC[C@]12C [Compound 10-4],10 to 50
7,COCC[C@@](C)(O)CC[C@@H](C)[C@H]1CC[C@H]2[C@@H]3CC[C@H]4C[C@@](C)(O)CC[C@]4(C)[C@H]3CC[C@]12C [Compound 10-19],10 to 50
8,C[C@H](CC[C@@](C)(O)C1CC1)[C@H]1CC[C@H]2[C@@H]3CC=C4C[C@@](C)(O)CC[C@]4(C)[C@H]3CC[C@]12C [Compound 9-3],50 to 100
9,CCCC[C@](C)(O)CC[C@@H](C)[C@H]1CC[C@H]2[C@@H]3CC=C4C[C@@](C)(O)CC[C@]4(C)[C@H]3CC[C@]12C [Compound 7-4],50 to 100
10,CC[C@@](C)(O)CC[C@@H](C)[C@H]1CC[C@H]2[C@@H]3CC=C4C[C@@](C)(O)CC[C@]4(C)[C@H]3CC[C@]12C [Compound 4-11],> 100
11,CC[C@@](C)(O)CC[C@@H](C)[C@H]1CC[C@H]2[C@@H]3CC[C@H]4C[C@@](C)(O)CC[C@]4(C)[C@H]3CC[C@]12C [Compound 4-9],10 to 50
12,C#C[C@](C)(O)CC[C@@H](C)[C@H]1CC[C@H]2[C@@H]3CC[C@H]4C[C@@](C)(O)CC[C@]4(C)[C@H]3CC[C@]12C [Compound 10-8],50 to 100
13,C#CC(C)(O)CC[C@@H](C)[C@H]1CC[C@H]2[C@@H]3CC=C4C[C@@](C)(O)CC[C@]4(C)[C@H]3CC[C@]12C (some centres unmarked) [Compound 10-2],50 to 100
14,C[C@H](CC[C@@](C)(O)CCO)[C@H]1CC[C@H]2[C@@H]3CC[C@H]4C[C@@](C)(O)CC[C@]4(C)[C@H]3CC[C@]12C [Compound 10-16],10 to 50
15,COCC[C@](C)(O)CC[C@@H](C)[C@H]1CC[C@H]2[C@@H]3CC=C4C[C@@](C)(O)CC[C@]4(C)[C@H]3CC[C@]12C [Compound 10-22],50 to 100
16,C=C[C@@](C)(O)CC[C@@H](C)[C@H]1CC[C@H]2[C@@H]3CC[C@H]4C[C@@](C)(O)CC[C@]4(C)[C@H]3CC[C@]12C [Compound 10-11],10 to 50
17,C#C[C@@](C)(O)CC[C@@H](C)[C@H]1CC[C@H]2[C@@H]3CC[C@H]4C[C@@](C)(O)CC[C@]4(C)[C@H]3CC[C@]12C [Compound 10-9],10 to 50
18,C=CC(C)(O)CC[C@@H](C)[C@H]1CC[C@H]2[C@@H]3CC[C@H]4C[C@@](C)(O)CC[C@]4(C)[C@H]3CC[C@]12C (some centres unmarked) [Compound 10-7],50 to 100
19,C[C@H](CC(F)(F)C(C)(C)O)[C@H]1CC[C@H]2[C@@H]3CC=C4C[C@@](C)(O)CC[C@]4(C)[C@H]3CC[C@]12C [Compound 11-19],10 to 50
